The values that follow come from patent publication US6947847B2, “Method to design therapeutically important compounds” (Wisconsin Alumni Research Foundation, priority 2002, dated 2005).

One assay addresses T1, R. chinensis pepsin (Rhizopus chinensis, UniProt P06026).
T1 sequence (P06026 69-393): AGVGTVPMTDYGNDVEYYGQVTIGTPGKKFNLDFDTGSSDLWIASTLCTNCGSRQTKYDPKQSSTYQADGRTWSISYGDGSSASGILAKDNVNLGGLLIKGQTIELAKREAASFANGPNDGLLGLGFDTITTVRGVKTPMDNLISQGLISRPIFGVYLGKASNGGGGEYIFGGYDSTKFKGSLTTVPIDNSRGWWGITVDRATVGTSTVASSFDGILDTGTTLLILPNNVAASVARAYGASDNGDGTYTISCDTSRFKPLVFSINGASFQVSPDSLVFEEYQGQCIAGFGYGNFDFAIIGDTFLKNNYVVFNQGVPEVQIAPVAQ
Nature of the assay: biochemical. Here is the method:
Inhibition of substrate hydrolysis by porcine pepsin and R. chinensis pepsin was determined using prior art assay conditions. See Flentke et al. (1999) Protein Expression Purif. 16:213 and Peranteau et al. (1995) Anal. Biochem. 227:242.

The next assay concerns the target porcine pepsin (Sus scrofa, UniProt P00791). Nature of the assay: Inhibition of substrate hydrolysis by porcine pepsin. It counts as biochemical.
Another assay addresses human renin (Homo sapiens, UniProt P00797). The settings on record: cited from earlier work.

pIC50: −log10 of the molar value. Where two headings read alike, the source gives them in different places.

human renin, sequence (P00797 67-406): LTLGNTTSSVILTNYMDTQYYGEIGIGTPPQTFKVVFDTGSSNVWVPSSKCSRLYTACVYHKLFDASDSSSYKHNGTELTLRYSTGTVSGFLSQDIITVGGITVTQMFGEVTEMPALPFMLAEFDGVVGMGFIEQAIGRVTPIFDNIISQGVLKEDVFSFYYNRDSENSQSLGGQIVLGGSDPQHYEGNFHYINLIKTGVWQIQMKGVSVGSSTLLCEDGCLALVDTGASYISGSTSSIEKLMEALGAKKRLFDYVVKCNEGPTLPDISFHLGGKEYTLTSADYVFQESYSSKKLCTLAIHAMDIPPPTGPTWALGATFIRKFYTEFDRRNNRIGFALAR
porcine pepsin, sequence (P00791 60-385): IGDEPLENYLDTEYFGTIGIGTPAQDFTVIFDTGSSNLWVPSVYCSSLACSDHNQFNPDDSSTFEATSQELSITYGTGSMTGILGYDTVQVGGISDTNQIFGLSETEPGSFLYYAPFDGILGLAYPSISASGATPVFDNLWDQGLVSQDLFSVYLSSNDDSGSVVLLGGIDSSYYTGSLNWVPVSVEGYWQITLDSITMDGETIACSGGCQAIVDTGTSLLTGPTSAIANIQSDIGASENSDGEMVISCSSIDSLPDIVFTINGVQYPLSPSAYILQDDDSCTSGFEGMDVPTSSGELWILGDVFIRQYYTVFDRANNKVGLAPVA

Consider `O=C(COc1ccc([C@H]2CCNC[C@@H]2OCc2ccc(Br)cc2)cc1)c1ccc2ccccc2c1` [Compound 11], for which the pIC50 against R. chinensis pepsin was 6.70; on porcine pepsin (porcine pepsin, read-out: IC50), 6.70.

`Brc1ccc(CO[C@H]2CNCC[C@@H]2c2ccccc2)cc1` [Compound 12]: the pIC50 at R. chinensis pepsin (R. chinensis pepsin, read-out: IC50) was 5.70; on porcine pepsin it was 5.70.

As for `COc1ccc(CO[C@H]2CNCCC2c2ccc(Cl)cc2)cc1` (stereo partly drawn) [Compound 4], the “concentrations at which renin is inhibited (in words)” value at human renin (human renin, literature) is “low micromolar”. In addition, the pIC50 on human renin (read-out: inhibits renin at, renin, literature value) was ~4.59.
